US20120028880A1, “VEGFR-1/NRP-1 TARGETING PEPTIDES” (priority 2007, published 2012)
Like-named read-outs stand apart in the source and are kept apart here. Square brackets hold non-standard residues; d marks the D form. Ends that are not written are not given here. Peptide text beside a SMILES is read from it.

Tests used:
VEGFR-1 [1] = target: T1, VEGFR-1 (Homo sapiens, UniProt P17948); assay: Phage binding competition assay, immobilized VEGFR-1
T1 construct: purchased R&D Systems (Minneapolis, Minn.)
Experimental: (§1) Phage assay. Phage was prepared by infection of log-phase culture of E. coli K91kan, and overnight growth in Luria-Bertani (LB) media supplemented with kanamycin (100 μg/ml) and tetracyclin (20 μg/ml) at 37° C. and 250 rpm. Phage was precipiated from the media supernatant by the PEG/NaCl method, and phage titer determined by serial dilution and colony counting (Giordano, 2001). For the phage binding and competition assays, VEGFR-1, NRP-1 or BSA (10 μg/ml in PBS) was immobilized on microtiter wells overnight at 4° C. Wells were washed twice, blocked with PBS 3% BSA for 2 h at room temperature and incubated with 10^9 TU of CPQPRPLC or negative control insertless (Fd-tet) phage in PBS 3% BSA. After 1 h at room temperature, wells were washed 10 times with PBS and phage bound to the immobilized receptors recovered by bacterial infection (Giordano, 2001).

NRP-1 [2] = target: T2, NRP-1 (Homo sapiens, UniProt O14786); assay: Phage binding competition assay, immobilized NRP-1
T2 construct: purchased R&D Systems (Minneapolis, Minn.)
Experimental: as §1

pancreatin = assay: Protease resistance assay; type: in vitro ADME; conditions: increasing concentrations of pancreatin, highest ratio 400 pg/nmol; 2 h at 37° C.; MALDI-TOF
Experimental: Protease resistance assay. The D(LPR) and RPL peptides were diluted to 500 μg/ml in PBS and incubated with increasing concentrations of pancreatin (Sigma-Aldrich, St. Louis, Mo.) for 2 h at 37° C. Samples were then analyzed by mass spectroscopy (MALDI-TOF).

[3] = Weight loss in diet-induced obese mice; type: in vivo, mouse
Excerpt: The present inventors thus carried out studies to assess the ability of the LPR VEGFR-1 targeting peptides of the present invention to target fat tissue and thereby reduce weight in diet-induced obese mice. To this end, diet-induced obese mice were divided in groups and treated with the VEGFR-1/NRP-1 targeting peptide. C57BL/6 ]-60% DIO mice (36-weeks old) were purchased from The Jackson Laboratory. These animals were fed on a high calorie diet (J-60%) to produce a diet-induced obesity (DIO) phenotype. Animals were divided in groups and treated daily with: [Group 1]D(CLPRC) (SEQ ID NO:7) (N=5); [Group 2] CKGGRAKDC-GG-D(KLAKLAK)2 (SEQ ID NO:9) (N=3); [Group 3]D(CLPRC) combined with CKGGRAKDC-GG-D(KLAKLAK)2 (SEQ ID NO:10) (N=4); [Group 4] vehicle only (N=4). All animals were hydrated by intraperitoneally administration of 1 ml of saline solution (0.9% sodium chloride solution, USP quality) 30 minutes prior to treatment. Mice were treated daily with D(CLPRC) dissolved in phosphate buffered saline vehicle (PBS) (100 μl total injection) at a 50 mg/Kg/body weight dose (Groups 1 and 3); CKGGRAKDC-GG-D(KLAKLAK)2 (SEQ ID NO:9) in PBS was administered by subcutaneously (100 total volume) at 3 mg/Kg (Group 2) or at 1 mg/Kg when in combination with D(CLPRC) (Group 3) 5 days a week (Monday thru Friday). Mice were weighted once a week.

white fat = conditions: previous studies of the inventors; cited from earlier work
VEGFR-1 [4] = target: T1, VEGFR-1; conditions: Giordano et al., 2001; read-out: IC50 previously described for VEGFR-1; cited from earlier work
NRP-1 [5] = target: T2, NRP-1; conditions: Giordano et al., 2001; read-out: IC50 previously described for NRP-1; cited from earlier work
EF43.fgf4 derived tumors = assay: Tumor growth, EF43.fgf4 breast cancer model; type: in vivo, mouse
Experimental: Tumor growth. The EF43.fgf4 cells were cultured in Dulbelco's modified Eegles medium supplemented with fetal bovine serum, glutamine and antibiotics. Cells were harvested before reaching confluence and injected subcutaneously in the mammary fatpad of Balb/c mice. Mier 10 days, tumor reached ˜50-80 mm^3 and were then separated into four groups with seven animals (N=7). Animals in each group were treated with either vehicle only (phosphate saline buffered solution) or with control peptide D(CAPAC) (SEQ ID NO:6) or D(LPR) (at 50 mg/Kg) or with the cyclic version D(CLPRC) (SEQ ID NO:7) (at 25 mg/Kg). Tumor volume was calculated by measuring the length of the long (L) and the short (S) sides of each tumor (V=S^2×L×[…]).
Statistical analysis. For the in vivo experiments, statistical significance of the difference was computed by Kruskal-Wallis test (non parametric one factor ANOVA method) with p<0.05 for each treatment day. […] Multiple comparisons were adjusted by Bejamini & Hochberg method. All the statistical analysis was computed using The R (Version 2.4.1) Project for Statistical Computing.

[6] = fat-zapper alone, 3 mg/Kg subcutaneously, obese mice
[7] = obese C57BL/6 mice, 50 mg/Kg daily intraperitoneally, over the treatment period

T2 sequence (O14786 22-923): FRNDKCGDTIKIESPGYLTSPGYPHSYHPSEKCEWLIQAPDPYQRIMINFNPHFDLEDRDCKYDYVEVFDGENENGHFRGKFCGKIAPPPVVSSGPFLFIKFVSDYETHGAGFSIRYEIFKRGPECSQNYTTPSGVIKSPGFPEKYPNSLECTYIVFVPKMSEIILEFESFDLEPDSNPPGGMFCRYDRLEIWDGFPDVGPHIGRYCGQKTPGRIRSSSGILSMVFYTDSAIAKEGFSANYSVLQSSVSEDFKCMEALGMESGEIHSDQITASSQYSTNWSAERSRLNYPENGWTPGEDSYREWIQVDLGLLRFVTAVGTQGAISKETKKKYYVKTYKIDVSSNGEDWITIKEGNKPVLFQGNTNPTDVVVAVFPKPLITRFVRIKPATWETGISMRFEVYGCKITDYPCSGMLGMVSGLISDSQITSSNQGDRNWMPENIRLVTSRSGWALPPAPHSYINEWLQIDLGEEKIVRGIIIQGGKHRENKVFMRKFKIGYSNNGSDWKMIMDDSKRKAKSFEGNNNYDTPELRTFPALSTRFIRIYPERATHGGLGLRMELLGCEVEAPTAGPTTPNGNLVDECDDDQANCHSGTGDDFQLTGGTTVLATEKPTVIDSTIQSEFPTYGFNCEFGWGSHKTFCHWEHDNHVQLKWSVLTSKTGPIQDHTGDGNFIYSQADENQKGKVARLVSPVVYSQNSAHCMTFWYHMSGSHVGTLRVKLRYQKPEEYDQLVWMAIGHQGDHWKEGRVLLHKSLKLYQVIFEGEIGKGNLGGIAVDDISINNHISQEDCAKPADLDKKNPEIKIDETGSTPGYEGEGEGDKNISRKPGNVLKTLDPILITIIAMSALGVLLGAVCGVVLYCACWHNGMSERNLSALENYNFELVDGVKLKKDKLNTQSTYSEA
T1 sequence (P17948 27-1338, species assumed): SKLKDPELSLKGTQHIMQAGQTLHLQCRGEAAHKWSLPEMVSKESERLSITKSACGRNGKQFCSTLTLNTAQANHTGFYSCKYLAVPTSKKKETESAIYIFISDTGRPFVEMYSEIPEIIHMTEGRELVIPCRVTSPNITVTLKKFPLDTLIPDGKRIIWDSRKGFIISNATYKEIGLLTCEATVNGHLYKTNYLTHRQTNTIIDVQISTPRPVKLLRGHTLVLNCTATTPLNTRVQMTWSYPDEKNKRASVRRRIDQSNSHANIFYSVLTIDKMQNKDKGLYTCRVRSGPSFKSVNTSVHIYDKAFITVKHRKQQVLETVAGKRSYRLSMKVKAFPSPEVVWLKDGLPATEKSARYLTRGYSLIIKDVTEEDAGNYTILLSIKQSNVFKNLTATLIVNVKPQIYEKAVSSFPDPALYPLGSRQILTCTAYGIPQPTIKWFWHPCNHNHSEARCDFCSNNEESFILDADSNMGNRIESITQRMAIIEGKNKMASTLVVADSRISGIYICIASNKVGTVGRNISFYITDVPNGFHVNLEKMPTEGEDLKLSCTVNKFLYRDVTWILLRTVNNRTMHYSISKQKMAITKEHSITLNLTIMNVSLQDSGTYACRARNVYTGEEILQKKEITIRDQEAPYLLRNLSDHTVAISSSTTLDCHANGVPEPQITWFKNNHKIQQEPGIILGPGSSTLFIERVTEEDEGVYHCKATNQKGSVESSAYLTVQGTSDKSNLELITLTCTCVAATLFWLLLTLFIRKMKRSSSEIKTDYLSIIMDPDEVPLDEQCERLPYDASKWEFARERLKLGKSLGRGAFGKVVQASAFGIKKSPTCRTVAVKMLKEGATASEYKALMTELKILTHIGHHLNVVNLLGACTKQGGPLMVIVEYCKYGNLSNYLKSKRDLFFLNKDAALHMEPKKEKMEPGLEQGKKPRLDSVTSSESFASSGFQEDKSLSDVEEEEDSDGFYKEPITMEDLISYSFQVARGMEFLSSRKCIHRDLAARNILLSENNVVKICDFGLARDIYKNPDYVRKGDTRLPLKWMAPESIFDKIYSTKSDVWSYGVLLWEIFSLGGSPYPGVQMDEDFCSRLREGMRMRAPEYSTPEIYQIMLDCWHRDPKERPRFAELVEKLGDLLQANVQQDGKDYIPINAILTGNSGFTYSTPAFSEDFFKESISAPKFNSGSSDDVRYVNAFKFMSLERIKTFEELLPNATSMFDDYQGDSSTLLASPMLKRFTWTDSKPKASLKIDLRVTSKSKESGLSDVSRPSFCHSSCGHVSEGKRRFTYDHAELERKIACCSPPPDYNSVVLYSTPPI

CC(C)C[C@@H](N)C(=O)N1CCC[C@@H]1C(=O)N[C@H](CCCNC(=N)N)C(=O)O [D(LPR), D-Leu-D-Pro-D-Arg] (H-[dL]-[dP]-[dR]-OH)
IC50 (VEGFR-1 [1]): 0.001 to 0.01 nM
IC50 (NRP-1 [2]): 0.001 to 0.01 nM
proteolytic degradation by pancreatin (breakdown products by mass spectroscopy) (pancreatin): No breakdown products were observed

CC(C)C[C@H](NC(=O)[C@@H]1CCCN1C(=O)[C@@H](N)CCCNC(=N)N)C(=O)O [RPL, L-Arg-L-Pro-L-Leu, reference compound] (H-Arg-Pro-Leu-OH)
proteolytic degradation by pancreatin (breakdown products by mass spectroscopy) (pancreatin): marked degradation

CKGGRAKDC-GG-D(KLAKLAK)2 (CKGGRAKDCGG[dK][dL][dA][dK][dL][dA][dK][dK][dL][dA][dK][dL][dA][dK]; cysteine pairing not given here) [fat-zapper, homing peptide … conjugated to the proapoptotic peptide D(KLAKLAK)2, reference compound]
weight loss [3, 6]: about 10 grams
weight loss, % body weight [3, 6]: 20 % body weight
therapeutic dose that induces fat ablation (white fat): ≥ 3 mg/Kg/body weight

CPQPRPLC
IC50 (VEGFR-1 [4]): ~1 nM
IC50 (NRP-1 [5]): 50 to 100 nM

D(Cys Leu Pro Arg Cys) ([dC][dL][dP][dR][dC]; also: cyclic, ring type not given here) [D(CLPRC)]
effect on tumor volume (EF43.fgf4 derived tumors; 25 mg/Kg daily, Balb/c mice): significant reduction in tumor volume
effect on tumor volume (FIG. 3 legend) (EF43.fgf4 derived tumors; legend: 50 mg/Kg daily, after five days of treatment, compared to control animals): reduced tumor volume
weight loss [3, 7]: about 3 grams
weight loss, % of body weight [3, 7]: approx. 6 % of body weight
